Reference: patent US20160194358A1, “LINEAR PEPTIDE ANTIBIOTCS” (priority 2013, published 2016)
Converted amounts (≈) assume the structure as drawn. Where two headings read alike, the source gives them in different places. *1 amine or outer side, *2 acyl side, *3 side chain or, on linkers, in order; H or OH if unused. Where a SMILES comes first, the peptide text is derived from it. [ ]: non-standard residue; d: D form. The star is where a group is joined. boroAla((+)-pinanediol) = C[C@H](N*)B1O[C@@H]2C[C@@H]3C[C@@H](C3(C)C)[C@]2(C)O1; Benzoyl(4-(4-Cl-Ph)) = O=C(c1ccc(-c2ccc(Cl)cc2)cc1)*; Propanoyl(3-decylamino) = CCCCCCCCCCNCCC(=O)*; X1 = C[C@H](N[*:1])C(=O)C(=O)[*:2]; NHPhenethyl = c1ccc(CCN*)cc1; X2 = C[C@H](N*)C(=O)c1ncco1; Dab = NCC[C@H](N)C(=O)O; Dap = NC[C@H](N)C(=O)O; NHBu = CCCCN*

What was measured:
[1] = system: Escherichia coli strain MC4100 IMP-4213, which harbors an LptD mutation; conditions: E. coli MC4100 IMP-4213; 35° C., 22 hours
Procedure, shortened: (§1)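 CLSI broth microdilution in cation-adjusted Mueller Hinton Broth with 0.002% Tween-80, two-fold dilutions starting at 64 μg/ml.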

[2] = system: methicillin resistant Staphylococcus aureus (MRSA) strain USA300 (NRS384); conditions: MRSA USA300 (NRS384); 35° C., 22 hours
Procedure, shortened: as §1

[3] = system: MRSA strain USA300; conditions: Compound 217 with imipenem, synergy defined as sum of FICs ≦0.5
Procedure: In this assay in each axis of a 96-well plate contains a 2-fold dilution of a given agent, such that each well contains a unique combination of the agents being tested.
To create a checkerboard dilution scheme, imipenem was diluted in Mueller Hinton II Broth+0.002% Tween-80 to twice the final desired concentration, and six 2-fold serial dilutions were performed in the same media yielding seven imipenem concentrations. Dilutions of Compound 217 were prepared similarly except that ten dilutions were performed for a total of eleven concentrations. For each concentration of imipenem, 50 uL aliquots were transferred to columns 1-12 of a given row of a 96-well clear polypropylene assay plate. For each concentration of Compound 217, 50 uL were transferred to rows A-H of a given column of the same plate. […]
MRSA strain USA300 was grown overnight at 35° C. on Mueller Hinton Agar plates, and colonies were suspended in Mueller Hinton II Broth+0.002% Tween-80 to a final density of 1*10^7 cfu/ml. […] The plate was incubated at 35° C. for 22 hours after which growth was determined via visual inspection. For each sub-MIC concentration of imipenem, the concentration of Compound 217 required to prevent visible growth was recorded, and the fractional inhibitor concentration (FIC) of each agent was calculated by dividing the concentration of each agent by MIC of the agent alone. […]

[4] = system: MRSA strain USA300; conditions: 0.5 ug/mL imipenem plus 0.125 ug/mL Compound 217
Procedure: Time-kill experiments were performed in 96-well incubation plates using Mueller Hinton II Broth+0.002% Tween-80 as the growth media. Individual wells contained imipenem alone, Compound 217 alone, or a combination of both agents at various concentrations. MRSA strain USA300 was grown overnight at 35° C. on Mueller Hinton Agar plates, and colonies were suspended in Mueller Hinton II Broth+0.002% Tween-80 to a final density of 2*10^8 cfu/mL. To each well of the incubation plates, 5 uL of this suspension were added, resulting in an initial density of 1*10^7 cfu/mL. Plates were incubated at 35° C., and at various time points 30 μl samples were removed, mixed 1:1 with 25 mg/ml activated carbon, serially diluted in sterile phosphate buffered saline supplemented with 0.05% Tween 20, and spotted onto Mueller Hinton Agar plates to enable cfu quantification. Colonies were counted and the cfu/ml at each time point calculated by based on the dilution factor and volume spotted.

[5] = system: MRSA strain USA300
[6] = target: T1, E. coli SPase (Escherichia coli, UniProt P00803); experiment: Biochemical SPase activity assay, fluorogenic peptide substrate, E. coli enzyme; conditions: 20 μM substrate, 10 minutes preincubation, read-out: IC 50 (nM) E. coli
T1 construct: Full length His-tagged E. coli SPase proteins; His; made in house; host or cells: E. coli BL21(DE3)
T1 sequence (P00803 whole entry): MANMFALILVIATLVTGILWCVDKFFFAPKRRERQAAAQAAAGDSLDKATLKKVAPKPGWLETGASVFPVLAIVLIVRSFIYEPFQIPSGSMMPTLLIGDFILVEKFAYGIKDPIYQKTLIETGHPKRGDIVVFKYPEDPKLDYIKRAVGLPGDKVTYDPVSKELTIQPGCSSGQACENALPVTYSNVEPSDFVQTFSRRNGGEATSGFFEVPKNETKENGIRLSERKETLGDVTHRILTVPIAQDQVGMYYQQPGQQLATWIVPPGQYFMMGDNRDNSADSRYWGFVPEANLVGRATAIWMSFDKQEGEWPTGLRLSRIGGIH

[7] = target: S. aureus SPase (Staphylococcus aureus, UniProt P0A070); experiment: biochemical; conditions: IC 50 (nM) S. aureus, 20 μM substrate, 10 minutes preincubation
Chain of S. aureus SPase (P0A070 whole entry): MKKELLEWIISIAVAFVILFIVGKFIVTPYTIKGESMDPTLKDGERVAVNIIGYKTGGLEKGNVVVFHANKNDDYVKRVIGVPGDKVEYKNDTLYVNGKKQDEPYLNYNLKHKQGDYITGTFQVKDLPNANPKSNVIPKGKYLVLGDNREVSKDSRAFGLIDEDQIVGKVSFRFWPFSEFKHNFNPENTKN

[8] = MRSA USA300, partner Amoxicillin/Clav at 1/4x its MIC
[9] = MRSA USA300, partner Ampicillin at 1/4x its MIC
[10] = MRSA USA300, partner Azlocillin at 1/4x its MIC
[11] = MRSA USA300, partner Biapenem at 1/4x its MIC
[12] = MRSA USA300, partner Carbenicillin at 1/4x its MIC
[13] = MRSA USA300, partner Cefaclor at 1/4x its MIC
[14] = MRSA USA300, partner Cefamandole at 1/4x its MIC
[15] = MRSA USA300, partner Cefazolin at 1/4x its MIC
[16] = MRSA USA300, partner Cefdinir at 1/4x its MIC
[17] = MRSA USA300, partner Cefepime at 1/4x its MIC
[18] = MRSA USA300, partner Cefixime at 1/4x its MIC
[19] = MRSA USA300, partner Cefmetazole at 1/4x its MIC
[20] = MRSA USA300, partner Cefonicid at 1/4x its MIC
[21] = MRSA USA300, partner Cefotaxime at 1/4x its MIC
[22] = MRSA USA300, partner Cefotetan at 1/4x its MIC
[23] = MRSA USA300, partner Cefoxitin at 1/4x its MIC
[24] = MRSA USA300, partner Cefpodoxime at 1/4x its MIC
[25] = MRSA USA300, partner Cefprozil at 1/4x its MIC
[26] = MRSA USA300, partner Ceftazidime at 1/4x its MIC
[27] = MRSA USA300, partner Ceftizoxime at 1/4x its MIC
[28] = MRSA USA300, partner Ceftriaxone at 1/4x its MIC
[29] = MRSA USA300, partner Cephalothin at 1/4x its MIC
[30] = MRSA USA300, partner Doripenem at 1/4x its MIC
[31] = MRSA USA300, partner Ertapenem at 1/4x its MIC
[32] = MRSA USA300, partner Faropenem at 1/4x its MIC
[33] = MRSA USA300, partner Imipenem at 1/4x its MIC
[34] = MRSA USA300, partner Mecillinam at 1/4x its MIC
[35] = MRSA USA300, partner Meropenem at 1/4x its MIC
[36] = MRSA USA300, partner Methicillin at 1/4x its MIC
[37] = MRSA USA300, partner Mezlocillin at 1/4x its MIC
[38] = MRSA USA300, partner Moxalactam at 1/4x its MIC
[39] = MRSA USA300, partner Oxacillin at 1/4x its MIC
[40] = MRSA USA300, partner Piperacillin/tazobactam at 1/4x its MIC
[41] = MRSA USA300, partner Ticarcillin at 1/4x its MIC

CCCCCCCCCCNCCC(=O)N[C@@H](CCCCN)C(=O)N[C@H](C(=O)N[C@@H](C)C(=O)N[C@@H](CCCCN)C(=O)N[C@@H](C)B1O[C@@H]2C[C@@H]3C[C@@H](C3(C)C)[C@]2(C)O1)[C@@H](C)O [Compound 217] ({Propanoyl(3-decylamino)}-KTAK-{boroAla((+)-pinanediol)})
MIC (μg/mL) E. coli [1]: 23 µg/mL (≈ 26.7 µM) | MIC (μg/mL) S. aureus [2]: 0.31 µg/mL (≈ 0.359 µM) | sum of the FICs [3]: < 0.5 | time-kill: reduction of viable cells, combination vs either agent alone [4]: synergistic | Compound 217 SIC [5, 8]: 0.125 µg/mL | Fold reduction in Compound 217 MIC [5, 8]: 4 | Compound 217 SIC [5, 9]: 0.25 µg/mL | Fold reduction in Compound 217 MIC [5, 9]: 2 | Compound 217 SIC [5, 10]: 0.125 µg/mL | Fold reduction in Compound 217 MIC [5, 10]: 4 | Compound 217 SIC [5, 11]: 0.0156 µg/mL | Fold reduction in Compound 217 MIC [5, 11]: 32 | Compound 217 SIC [5, 12]: 0.125 µg/mL | Fold reduction in Compound 217 MIC [5, 12]: 4 | Compound 217 SIC [5, 13]: 0.125 µg/mL | Fold reduction in Compound 217 MIC [5, 13]: 4 | Compound 217 SIC [5, 14]: 0.125 µg/mL | Fold reduction in Compound 217 MIC [5, 14]: 4 | Compound 217 SIC [5, 15]: 0.0625 µg/mL | Fold reduction in Compound 217 MIC [5, 15]: 8 | Compound 217 SIC [5, 16]: 0.0078 µg/mL | Fold reduction in Compound 217 MIC [5, 16]: 64 | Compound 217 SIC [5, 17]: 0.03125 µg/mL | Fold reduction in Compound 217 MIC [5, 17]: 16 | Compound 217 SIC [5, 18]: 0.0625 µg/mL | Fold reduction in Compound 217 MIC [5, 18]: 8 | Compound 217 SIC [5, 19]: 0.125 µg/mL | Fold reduction in Compound 217 MIC [5, 19]: 4 | Compound 217 SIC [5, 20]: 0.125 µg/mL | Fold reduction in Compound 217 MIC [5, 20]: 4 | Compound 217 SIC [5, 21]: 0.0625 µg/mL | Fold reduction in Compound 217 MIC [5, 21]: 8 | Compound 217 SIC [5, 22]: 0.125 µg/mL | Fold reduction in Compound 217 MIC [5, 22]: 4 | Compound 217 SIC [5, 23]: 0.125 µg/mL | Fold reduction in Compound 217 MIC [5, 23]: 4 | Compound 217 SIC [5, 24]: 0.0625 µg/mL | Fold reduction in Compound 217 MIC [5, 24]: 8 | Compound 217 SIC [5, 25]: 0.125 µg/mL | Fold reduction in Compound 217 MIC [5, 25]: 4 | Compound 217 SIC [5, 26]: 0.125 µg/mL | Fold reduction in Compound 217 MIC [5, 26]: 4 | Compound 217 SIC [5, 27]: 0.0625 µg/mL | Fold reduction in Compound 217 MIC [5, 27]: 8 | Compound 217 SIC [5, 28]: 0.03125 µg/mL | Fold reduction in Compound 217 MIC [5, 28]: 16 | Compound 217 SIC [5, 29]: 0.03125 µg/mL | Fold reduction in Compound 217 MIC [5, 29]: 16 | Compound 217 SIC [5, 30]: 0.03125 µg/mL | Fold reduction in Compound 217 MIC [5, 30]: 16 | Compound 217 SIC [5, 31]: 0.125 µg/mL | Fold reduction in Compound 217 MIC [5, 31]: 4 | Compound 217 SIC (μg/ml) [5, 32]: ≦0.0039 μg/ml | Fold reduction in Compound 217 MIC [5, 32]: >128 | Compound 217 SIC [5, 33]: 0.03125 µg/mL | Fold reduction in Compound 217 MIC [5, 33]: 16 | Compound 217 SIC [5, 34]: 0.25 µg/mL | Fold reduction in Compound 217 MIC [5, 34]: 2 | Compound 217 SIC [5, 35]: 0.01563 µg/mL | Fold reduction in Compound 217 MIC [5, 35]: 32 | Compound 217 SIC [5, 36]: 0.125 µg/mL | Fold reduction in Compound 217 MIC [5, 36]: 4 | Compound 217 SIC [5, 37]: 0.125 µg/mL | Fold reduction in Compound 217 MIC [5, 37]: 4 | Compound 217 SIC [5, 38]: 0.03125 µg/mL | Fold reduction in Compound 217 MIC [5, 38]: 16 | Compound 217 SIC [5, 39]: 0.0625 µg/mL | Fold reduction in Compound 217 MIC [5, 39]: 8 | Compound 217 SIC [5, 40]: 0.125 µg/mL | Fold reduction in Compound 217 MIC [5, 40]: 4 | Compound 217 SIC [5, 41]: 0.0625 µg/mL | Fold reduction in Compound 217 MIC [5, 41]: 8 | Compound 217 MIC ([5]; MRSA strain USA300, partner beta-lactam: None): 0.5 µg/mL | synergy with partner beta-lactam antibiotics (SIC ≤ 1/4 MIC) ([5]; partner beta-lactam at 1/4x its MIC): synergize

C[C@H](NC(=O)[C@@H](NC(=O)[C@H](CN)NC(=O)c1ccc(-c2ccc(Cl)cc2)cc1)[C@@H](C)O)C(=O)N[C@@H](CCCCN)C(=O)N[C@@H](C)C(=O)C(=O)NCCc1ccccc1 [Compound 110] ({Benzoyl(4-(4-Cl-Ph))}-[Dap]TAK[X1]-NHPhenethyl)
MIC (μg/mL) E. coli [1]: 64 µg/mL (≈ 77.9 µM) | MIC (μg/mL) S. aureus [2]: 32 µg/mL (≈ 39 µM) | IC50 [6]: 6000 nM | IC50 [7]: 3800 nM

C[C@H](NC(=O)[C@@H](NC(=O)[C@H](CN)NC(=O)c1ccc(-c2ccc(Cl)cc2)cc1)[C@@H](C)O)C(=O)N[C@@H](CCCCN)C(=O)N[C@@H](C)C(=O)c1ncco1 [Compound 212] ({Benzoyl(4-(4-Cl-Ph))}-[Dap]TAK-X2)
MIC (μg/mL) E. coli [1]: 64 µg/mL (≈ 86.3 µM) | MIC (μg/mL) S. aureus [2]: 45 µg/mL (≈ 60.7 µM) | IC50 [6]: 34 nM | IC50 [7]: 2600 nM

CCCCNC(=O)C(=O)[C@H](C)NC(=O)[C@H](CCCCN)NC(=O)[C@H](C)NC(=O)[C@@H](NC(=O)[C@H](CN)NC(=O)c1ccc(-c2ccc(Cl)cc2)cc1)[C@@H](C)O [Compound 105] ({Benzoyl(4-(4-Cl-Ph))}-[Dap]TAK[X1]-NHBu)
MIC (μg/mL) E. coli [1]: 64 µg/mL (≈ 82.8 µM) | MIC (μg/mL) S. aureus [2]: 51 µg/mL (≈ 65.9 µM) | IC50 [6]: 900 nM | IC50 [7]: 1300 nM

CC(=O)N[C@@H](CCN)C(=O)N[C@H](C(=O)N[C@@H](C)C(=O)N[C@@H](CCCCN)C(=O)N[C@@H](C)B1O[C@@H]2C[C@@H]3C[C@@H](C3(C)C)[C@]2(C)O1)[C@@H](C)O [Compound 113] (Ac-[Dab]TAK-{boroAla((+)-pinanediol)})
MIC (μg/mL) E. coli [1]: >64 µg/mL | MIC (μg/mL) S. aureus [2]: >64 µg/mL | IC50 [6]: 5700 nM | IC50 [7]: 1200 nM
